Measured values taken from article PMC10835127, “Viruses traverse the human proteome through peptide interfaces that can be biomimetically leveraged for drug discovery” (Proceedings of the National Academy of Sciences of the …, 2024).
Where two headings read alike, the source gives them in different places. No end group written: not given here.

What was measured:
EBV = settings: for EBV Norm MEAN: normalized mean of EBV replication readout
HCV replicon = format: cell-based; settings: for HCV Norm MEAN: normalized mean of HCV replicon readout
HIV1 strain NL4-3 = format: cell-based; settings: normalized mean of HIV1 replication readout
influenza A H1N1 virus = settings: 48 hr post-treatment, A549
[1] = system: F. novicida (strain U112); format: cell-based

Row | Substance | EBV Norm MEAN (EBV; peptide screen) | HCV Norm MEAN (HCV replicon; peptide screen) | HIV1 Norm MEAN (HIV1 strain NL4-3; peptide screen) | Neuraminidase activity normalized to vehicle (influenza A H1N1 virus; 200 µM peptide) | Neuraminidase activity normalized to vehicle (influenza A H1N1 virus; 0,823 µM peptide) | Neuraminidase activity normalized to vehicle (influenza A H1N1 virus; 22,2 µM peptide) | Neuraminidase activity normalized to vehicle (influenza A H1N1 virus; 2,4691 µM peptide) | Neuraminidase activity normalized to vehicle (influenza A H1N1 virus; 7,4074 µM peptide) | Neuraminidase activity normalized to vehicle (influenza A H1N1 virus; 66,6667 µM peptide) | Francisella novicida Norm AUC [1] | EBV Norm MEAN (EBV) | HCV Norm MEAN (HCV replicon) | HIV1 Norm MEAN (HIV1 strain NL4-3) | inhibition of EBV late gene reporter signal (EBV; 48 h, 20 µM) [%] | Francisella novicida Norm AUC ([1]; normalized area under the curve) | activity in HCV screen (in words) (HCV replicon; 20 µM peptide, Huh7, replicon luciferase) | inhibition of PI incorporation in F. novicida infected BMDMs (in words) [1]
1 | CPEP69: peptide of the viral peptide library; sequence page not shown (MRHIICHGGVITEE) | 0.4275 | 0.5472 | 0.7189 | 1,1006 | 0,9574 | 1,0597 | 1,0075 | 1,0635 | 1,1613 | 1.041 | – | – | – | – | – | – | –
2 | RRRETQV [CPEP148] | – | – | – | 0,7433 | 0,8071 | 0,8272 | 0,7477 | 0,8788 | 0,7757 | 0.7414 | 1.54 | 0.1353 | 0.7674 | – | – | – | –
3 | SEWQRDQFLSQVK [CPEP95] | – | – | – | 0,9927 | 0,9256 | 0,9538 | 0,9776 | 0,9237 | 1,0019 | – | 0.3991 | 0.2824 | 0.5103 | 60 | 1.114 | – | –
4 | EDPNEE [CPEP68] | – | – | – | 0,7574 | 0,7462 | 0,8576 | 0,7296 | 0,7652 | 0,95 | 0.6174 | 0.4757 | 0.2553 | 1.205 | – | – | – | –
5 | PVQLSYYD [CPEP144] | – | – | – | 0,7318 | 1,0036 | 0,9081 | 0,8026 | 0,9626 | 0,8536 | 1.621 | 1.072 | 0.1325 | 1.139 | – | – | peptide inhibiting HCV | –
6 | RHFPRIW [CPEP146] | – | – | – | 0,7481 | 0,8163 | 0,8498 | 0,7842 | 0,7775 | 0,9221 | 1.892 | 1.3564 | 0.2243 | 0.9815 | – | – | – | –
7 | PDSDPQIPPPYVEPTA [CPEP138] | 0.9708 | 1.015 | 0.606 | 1,0087 | 1,063 | 1,1918 | 0,9934 | 1,0804 | 1,0379 | 0.9657 | – | – | – | – | – | – | –
8 | MSSDLRLTLLELVRRL [CPEP66] | 1.239 | 1.3108 | 8.878 | 1,1231 | 1,0081 | 1,2015 | 1,0026 | 1,0851 | 1,0904 | 1.55 | – | – | – | – | – | – | –
9 | LEDLL [CPEP131] | – | – | – | 1,0859 | 1,0236 | 1,0471 | 1,0486 | 0,9867 | 1,1075 | 1.169 | 1.433 | 0.1994 | 2.616 | – | – | – | –
10 | PVHAGPIAPGQMREP [CPEP81] | 0.3978 | 0.6759 | 0.8771 | 0,9395 | 0,9268 | 1,0319 | 1,0385 | 1,0221 | 1,026 | 1.038 | – | – | – | – | – | – | –
11 | NKVGSLQYLALAALI [CPEP60] | 0.706 | 1.268 | 4.7165 | 0,117 | 0,8991 | 0,7636 | 1,0157 | 0,7801 | 0,247 | 1.045 | – | – | – | – | – | – | –
12 | PVQES [CPEP44] | – | – | – | 0,8825 | 0,8116 | 0,9052 | 0,843 | 0,7952 | 1,0152 | 0.7515 | 1.192 | 0.1889 | 2.9976 | – | – | – | –
13 | TIESEV [CPEP59] | – | – | – | 1,1965 | 1,1044 | 1,0974 | 1,0801 | 1,0995 | 1,0953 | 0.4462 | 1.967 | 0.1611 | 0.5804 | – | – | – | one of the most potent virus-derived peptides to inhibit PI incorporation
14 | MSKKPGGPGKNRAVN [CPEP42] | 0.6277 | 0.9525 | 0.4686 | 0,9312 | 0,9146 | 1,055 | 0,9945 | 0,9864 | 1,0215 | 1.093 | – | – | – | – | – | – | –
15 | SKMQL [CPEP150] | – | – | – | 1,0149 | 0,912 | 0,9305 | 0,7746 | 0,8703 | 0,9907 | 0.5976 | 1.198 | 0.2118 | 1.8032 | – | – | – | –
16 | CMSCCRSSRTRRETQL [CPEP57] | 0.8928 | 0.7555 | 1.032 | 0,9828 | 1,0672 | 1,1821 | 0,702 | 1,111 | 0,9599 | 0.5573 | – | – | – | – | – | – | –
17 | LTMVI [CPEP12] | – | – | – | 0,732 | 0,7557 | 0,8312 | 0,7112 | 0,7657 | 0,8968 | 1.651 | 1.608 | 0.1977 | 1.936 | – | – | – | –
18 | YASIL [CPEP21] | – | – | – | 0,9829 | 0,8221 | 0,8963 | 0,8753 | 0,7869 | 1,0057 | 0.5259 | 1.459 | 0.1905 | 2.264 | – | – | – | –
19 | CPEP14: peptide of the viral peptide library; sequence page not shown (ILHTPGCVPCVR) | – | – | – | 0,9254 | 0,9272 | 1,0033 | 0,9392 | 0,9017 | 1,0554 | 1.22 | 1.5484 | 0.5608 | 0.4683 | – | – | – | –
20 | LGNIKGILGKKDKDG [CPEP51] | 0.7752 | 0.7895 | 0.5462 | 1,0387 | 0,8902 | 0,9184 | 0,9673 | 0,9421 | 1,0486 | 1.389 | – | – | – | – | – | – | –
